# Results taken from patent publication EP2298778A1, “IMIDAZOTHIAZOLE DERIVATIVE HAVING 4,7-DIAZASPIROÝ2.5¨OCTANE RING STRUCTURE” (Daiichi Sankyo Company, Limited, priority 2008, dated 2009).
# Assay: Metabolic stability test (microsomal metabolism test)
# Type: in vitro ADME
# Details: pH 7.4; human-derived liver microsomes, test compound remaining after addition of NADP+ and incubation at 37°C for 30 minutes; read-out: metabolic stability of T/C%
# Protocol: (Test Example 3 Metabolic stability test) 100 µL of 100 mM phosphate buffer solution (pH 7.4) containing 3 µM test compound was added to 100 µL of reaction solution containing 100 mM phosphate buffer solution (pH 7.4), 30 mM glucose 6-phosphate, 10 mM MgCl2·6H2O, 3 units/mL glucose 6-phosphate 1-dehydrogenase, and 0.3 to 1.5 mgP/mL human liver microsomes and the mixture was incubated at 37°C for 20 minutes. Then, 70 µL of 100 mM phosphate buffer solution (pH 7.4) containing 3 mM NADP^+ was added and the mixture was incubated at 37°C for 30 minutes to conduct a microsomal metabolism test. The metabolic stability was calculated according to the following formula: T/C (%) = ((concentration of test compound after addition of NADP)^+and incubation for30minutes)/((concentration of test compound before addition of NADP)^+) × 100. [formula] […]
row,remaining at 0.5 h,Compound
1,≥ 50%,"CC(C)C1=C(C(=O)N2[C@H](C)CC[C@H]2C(=O)N2CC3(CC3)N(C)C[C@@H]2C)SC2=N[C@@](C)(c3ccc(Cl)nc3)[C@@H](c3ccc(Cl)c(F)c3)N21 [Example 22, (6S)-7-[(5R)-1-{[(5R,6S)-5-(4-chloro-3-fluorophenyl)-6-(6-chloropyridin-3-yl)-3-isopropyl-6-methyl-5,6-dihydroimidazo[2,1-b][1,3]thiazol-2-yl]carbonyl}-5-methyl-L-prolyl]-4,6-dimethyl-4,7-diazaspiro[2.5]octane]"
2,≥ 50%,"CC[C@@H]1CNC2(CC2)CN1C(=O)[C@@H]1CC[C@@H](C)N1C(=O)C1=C(C(C)C)N2C(=N[C@@](C)(c3ccc(Cl)nc3)[C@H]2c2ccc(Cl)c(F)c2)S1 [Example 59, (6R)-7-[(5R)-1-{[(5R,6S)-5-(4-chloro-3-fluorophenyl)-6-(6-chloropyridin-3-yl)-3-isopropyl-6-methyl-5,6-dihydroimidazo[2,1-b][1,3]thiazol-2-yl]carbonyl}-5-methyl-L-prolyl]-6-ethyl-4,7-diazaspiro[2.5]octane]"
3,≥ 50%,"CC(C)C1=C(C(=O)N2C[C@@](C)(O)C[C@H]2C(=O)N2CC3(CC3)NC[C@@H]2C)SC2=N[C@@](C)(c3ccc(Cl)nc3)[C@@H](c3ccc(Cl)c(F)c3)N21 [Example 68, (3S,5S)-1-{[(5R,6S)-5-(4-chloro-3-fluorophenyl)-6-(6-chloropyridin-3-yl)-3-isopropyl-6-methyl-5,6-dihydroimidazo[2,1-b][1,3]thiazol-2-yl]carbonyl}-3-methyl-5-{[(6S)-6-methyl-4,7-diazaspiro[2.5]oct-7-yl]carbonyl}pyrrolidin-3-ol]"
4,≥ 50%,"CCN(C(=O)C1=C(C(C)C)N2C(=N[C@@](C)(c3ccc(Cl)cc3)[C@H]2c2ccc(Cl)cc2)S1)C1(C(=O)N2CCNC3(CC3)C2)CC1 [Example 50, (5R,6S)-5,6-bis(4-chlorophenyl)-N-[1-(4,7-diazaspiro[2.5]oct-7-ylcarbonyl)cyclopropyl]-N-ethyl-3-isopropyl-6-methyl-5,6-dihydroimidazo[2,1-b][1,3] thiazole-2-carboxamide]"
5,≥ 50%,"CC[C@@H]1CC[C@@H](C(=O)N2C[C@@H](C)NC3(CC3)C2)N1C(=O)C1=C(C(C)C)N2C(=N[C@@](C)(c3ccc(Cl)nc3)[C@H]2c2ccc(Cl)c(F)c2)S1 [Example 55, (5R)-7-[(5R)-1-{[(5R,6S)-5-(4-chloro-3-fluorophenyl)-6-(6-chloropyridin-3-yl)-3-isopropyl-6-methyl-5,6-dihydroimidazo[2,1-b][1,3]thiazol-2-yl]carbonyl}-5-ethyl-L-prolyl]-5-methyl-4,7-diazaspiro[2.5]octane]"
6,≥ 50%,"CC(C)C1=C(C(=O)N2[C@H](C)CC[C@H]2C(=O)N2CC3(CC3)NC[C@@H]2C)SC2=N[C@@](C)(c3ccc(Cl)nc3)[C@@H](c3ccc(Cl)c(F)c3)N21 [Example 21, (6S)-7-[(5R)-1-{[(5R,6S)-5-(4-chloro-3-fluorophenyl)-6-(6-chloropyridin-3-yl)-3-isopropyl-6-methyl-5,6-dihydroimidazo[2,1-b][1,3]thiazol-2-yl]carbonyl}-5-methyl-L-prolyl]-6-methyl-4,7-diazaspiro[2.5]octane]"
7,≥ 50%,"CC(C)C1=C(C(=O)N2[C@H](C)CC[C@H]2C(=O)N2CCNC3(CC3)C2)SC2=N[C@@](C)(c3ccc(Cl)nc3)[C@@H](c3ccc(Cl)cc3)N21 [Example 8, 7-[(5R)-1-{[(5R,6S)-5-(4-chlorophenyl)-6-(6-chloropyridin-3-yl)-3-isopropyl-6-methyl-5,6-dihydroimidazo[2,1-b][1,3]thiazol-2-yl]carbonyl}-5-methyl-L-prolyl]-4,7-diazaspiro[2.5]octane]"
8,≥ 50%,"CCN(C(=O)C1=C(C(C)C)N2C(=N[C@@](C)(c3ccc(Cl)nc3)[C@H]2c2ccc(Cl)c(F)c2)S1)C1(C(=O)N2CCNC3(CC3)C2)CC1 [Example 53, (5R,6S)-5-(4-chloro-3-fluorophenyl)-6-(6-chloropyridin-3-yl)-N-[1-(4,7-diazaspiro[2.5]oct-7-ylcarbonyl)cyclopropyl]-N-ethyl-3-isopropyl-6-methyl-5,6-dihydroimidazo[2,1-b][1,3]thiazole-2-carboxamide]"
9,≥ 50%,"CC(C)C1=C(C(=O)N2[C@H](C)CC[C@H]2C(=O)N2CCNC3(CC3)C2)SC2=N[C@@](C)(c3ccc(F)cc3)[C@@H](c3ccc(Cl)c(F)c3)N21 [Example 25, 7-[(5R)-1-{[(5R,6S)-5-(4-chloro-3-fluorophenyl)-6-(4-fluorophenyl)-3-isopropyl-6-methyl-5,6-dihydroimidazo[2,1-b][1,3]thiazol-2-yl]carbonyl}-5-methyl-L-prolyl]-4,7-diazaspiro[2.5]octane]"
10,≥ 50%,"CCN1CCN(C(=O)[C@@H]2CC[C@@H](C)N2C(=O)C2=C(C(C)C)N3C(=N[C@@](C)(c4ccc(Cl)nc4)[C@H]3c3ccc(Cl)c(F)c3)S2)CC12CC2 [Example 14, 7-[(5R)-1-{[(5R,6S)-5-(4-chloro-3-fluorophenyl)-6-(6-chloropyridin-3-yl)-3-isopropyl-6-methyl-5,6-dihydroimidazo[2,1-b][1,3]thiazol-2-yl]carbonyl}-5-methyl-L-prolyl]-4-ethyl-4,7-diazaspiro[2.5]octane]"
11,≥ 50%,"CC(C)C1=C(C(=O)N2[C@H](C)CC[C@H]2C(=O)N2CCN(CCO)C3(CC3)C2)SC2=N[C@@](C)(c3ccc(Cl)cc3)[C@@H](c3ccc(Cl)c(F)c3)N21 [Example 7, 2-{7-[(5R)-1-{[(5R,6S)-5-(4-chloro-3-fluorophenyl)-6-(4-chlorophenyl)-3-isopropyl-6-methyl-5,6-dihydroimidazo[2,1-b][1,3]thiazol-2-yl]carbonyl}-5-methyl-L-prolyl]-4,7-diazaspiro[2.5]oct-4-yl}ethanol]"
12,≥ 50%,"CC(C)C1=C(C(=O)N2[C@H](C)CC[C@H]2C(=O)N2CCNC3(CC3)C2)SC2=N[C@@](C)(c3ccc(Cl)cc3)[C@@H](c3ccc(Cl)cc3)N21 [Example 1, 7-[(5R)-1-{[(5R,6S)-5,6-bis(4-chlorophenyl)-3-isopropyl-6-methyl-5,6-dihydroimidazo[2,1-b][1,3]thiazol-2-yl]carbonyl}-5-methyl-L-prolyl]-4,7-diazaspiro[2.5]octane]"
13,≥ 50%,"CC(C)C1=C(C(=O)N2[C@H](C)CC[C@H]2C(=O)N2CCNC3(CC3)C2)SC2=N[C@@](C)(c3ccc(Cl)nc3)[C@@H](c3ccc(Cl)c(O)c3)N21 [Example 71, 2-chloro-5-[(5R,6S)-6-(6-chloropyridin-3-yl)-2-{[(2S,5R)-2-(4,7-diazaspiro[2.5]oct-7-ylcarbonyl)-5-methylpyrrolidin-1-yl]carbonyl}-3-isopropyl-6-methyl-5,6-dihydroimidazo[2,1-b][1,3]thiazol-5-yl]phenol]"
14,≥ 50%,"CC(C)C1=C(C(=O)N2C(=O)CC[C@H]2C(=O)N2CCNC3(CC3)C2)SC2=N[C@@](C)(c3ccc(Cl)cc3)[C@@H](c3ccc(Cl)cc3)N21 [Example 42, (5S)-1-{[(5R,6S)-5,6-bis(4-chlorophenyl)-3-isopropyl-6-methyl-5,6-dihydroimidazo[2,1-b][1,3]thiazol-2-yl]carbonyl}-5-(4,7-diazaspiro[2.5]oct-7-ylcarbonyl)pyrrolidin-2-one]"
